The values below come from patent US20260265244A1, “HETEROCYCLIC COMPOUNDS AS STING ANTAGONISTS” (Boehringer Ingelheim International GmbH, priority 2022, published 2026).

As usually defined, the IC50 is the midpoint of a concentration-inhibition curve. A high value points to lower potency.

The assay concerns STING inhibition in human whole blood (IFNα2α production). Briefly: Human whole blood assay (HWBA): cGAMP-stimulated IFNα2α production. Type of assay: cell-based. To be noted: Homo sapiens. On the procedure: For the detection of STING inhibition in physiological environment human whole blood was stimulated by the cyclic dinucleotide cGAMP. Pathway activity was monitored by measuring the IFNα2α production.
Assay method: Compounds were delivered as 10 mM DMSO solution and serial diluted and transferred to the 96-well Cell culture Plate (Corning #3595), prefilled with 20 μl OptiMEM (Gibco #11058-021) in each well, using an Echo acoustic dispenser. Typically, 8 concentrations were used with the highest concentration at 10 μM in the final assay volume followed by ~1:5 dilution steps. DMSO concentration was set to 0.1% in the final assay volume. The 96 well assay plate contained 9 test compounds, a reference compound and DMSO in control wells.
Collection of human whole blood from 3 or more healthy donors (male or female, no medication for 7 days, exception contraceptive and thyroxine) as Na-citrate blood (e.g. 3.8% in Monovettes from Sarstedt) is conducted in parallel. Whole blood was kept at room temperature for a maximum of 3 hours after collection until use in the assay.
160 μl of the whole blood samples were transferred to each well of the 96-well assay plates filled with compound/OptiMEM. All assay plates are prepared as duplicates with blood from different donors. Blood plates were kept at room temperature for 60 minutes and continuous shaking with 450 rpm, covered with the lid, but not sealed.
A 10× cGAMP assay solution was diluted from a 2 mM stock solution in 1×HBSS immediately before use at room temperature. 20 μl of the 10× cGAMP/HBSS were added to all compound and all high control wells, whereas HBSS only was added to all low control wells.
After covering assay plates with aera seals and the lid, blood plates were kept at room temperature for 30 minutes and continuous shaking with 450 rpm, followed by an overnight incubation of 22 h at 37° C. in the incubator, without shaking.
For the detection of IFNα-2α in human plasma, the biotinylated capture antibody (Antibody set IFNA2, Meso Scale Diagnostics #B21VH-3, including coating and capture antibody) was diluted 1:17.5 in Diluent 100 (Meso Scale Diagnostics #R50AA-4, according to the manufacturer. U-Plex MSD GOLD 96-well Small Spot Streptavidin SECTOR Plates (Meso Scale Diagnostics #L45SA-5) were coated with 25 μl diluted capture antibody. Coated plates were incubated for 60 min at room temperature under continuous shaking at 700 rpm. MSD IFNα-2α plates were washed three times with 150 μl wash buffer (1×HBSS, 0.05% Tween).
After blocking the plates with 100 μl block solution/well (1×HBSS with 0.2% Tween, 2% BSA) for 60 min at room temperature and continuous shaking at 700 rpm, plates were emptied as dry as possible by dumping just before continuing with the human plasma. Whole Blood assay plates were centrifuged at 1600 rpm for 10 minutes. 25 μl of supernatant was transferred with a pipetting robotics from each whole blood plate to the corresponding IFNα-2α plate. Plates were sealed with microplate seals and kept at room temperature again under continuous shaking at 700 rpm for two hours. Next MSD IFNα-2α plates were washed three times with 150 μl wash buffer (1×HBSS, 0.05% Tween), before adding 25 μl MSD SULFO-TAG IFNα-2α Antibody solution (1:100 diluted in Diluent 3 (Meso Scale Diagnostics #R50AP-2) to each well of the plates. Afterwards plates were sealed with microplate seals and kept at room temperature again under continuous shaking at 700 rpm for two hours. Finally MSD IFNα-2α plates were washed three times with 150 μl wash buffer (1×HBSS, 0.05% Tween). 150 μl 2×Read buffer was added to each well and plates were immediately measured with the MSD Sector S600 Reader using the vendor barcode.
Data evaluation and calculation: For data evaluation and calculation, % control calculation of each well was based on the mean of high (cGAMP stimulated control) and mean of low (unstimulated control) controls by using the following formula: […]

As for `Cc1nc2nn(C3CCOC3)cc2cc1-n1nc(-c2cccc3nn(C[C@H](O)c4ccccc4)cc23)c(C(C)C)c1C` (stereo partly drawn) [Example 14, (1R)-2-(4-{5-methyl-1-[6-methyl-2-(oxolan-3-yl)-2H-pyrazolo[3,4-b]pyridin-5-yl]-4-(propan-2-yl)-1H-pyrazol-3-yl}-2H-indazol-2-yl)-1-phenylethan-1-ol], the IC50 was 76 nM. With `Cc1c(C(C)C)c(-c2cccc3nn(C[C@H](O)c4ccc(OCCN(C)C)cc4)cc23)nn1-c1cc2cn(C)nc2nc1C1CC1` [Example 101] the figure was 39 nM; with `Cc1c(C(C)C)c(-c2cccc3nn(C[C@H](O)c4ccccc4)cc23)nn1-c1cc2cn(C)nc2nc1C(F)F` [Example 64, (1R)-2-(4-{1-[6-(difluoromethyl)-2-methyl-2H-pyrazolo[3,4-b]pyridin-5-yl]-5-methyl-4-(propan-2-yl)-1H-pyrazol-3-yl}-2H-indazol-2-yl)-1-phenylethan-1-ol], 300 nM. Consider `CC(C)n1cc2cc(-c3nc(-c4cccc5nn(C[C@H](O)c6ccccc6)cc45)c(C4CC4)n3C)c(C3CC3)nc2n1` [Example 33, (1R)-2-(4-{5-cyclopropyl-2-[6-cyclopropyl-2-(propan-2-yl)-2H-pyrazolo[3,4-b]pyridin-5-yl]-1-methyl-1H-imidazol-4-yl}-2H-indazol-2-yl)-1-phenylethan-1-ol], for which the IC50 was 110 nM. Compound `CCCn1cc2cc(-c3nc(-c4cccc5nn(CC(F)(F)c6ccccc6)cc45)c(C4CC4)n3C)c(C3CC3)nc2n1` [Example 48, 4-(5-cyclopropyl-2-{6-cyclopropyl-2-propyl-2H-pyrazolo[3,4-b]pyridin-5-yl}-1-methyl-1H-imidazol-4-yl)-2-(2,2-difluoro-2-phenylethyl)-2H-indazole] gave a half-maximal inhibitory concentration (IC50) of 150 nM.

As for `Cc1c(C(C)C)c(-c2cccc3nn(C[C@H](O)c4ccccc4)cc23)nn1-c1cc2cn(C)nc2nc1OC(C)C` [Example 23, (1R)-2-(4-{5-methyl-1-[2-methyl-6-(propan-2-yloxy)-2H-pyrazolo[3,4-b]pyridin-5-yl]-4-(propan-2-yl)-1H-pyrazol-3-yl}-2H-indazol-2-yl)-1-phenylethan-1-ol], the concentration for half-maximal inhibition (IC50) stood at 89 nM. As to `Cc1nc2nn(C)cc2cc1-n1nc(-c2cccc3nn(C[C@H](OCCCCO)c4ccccc4)cc23)c(C(C)C)c1C` [Example 66, 4-[(1R)-2-[4-(1-{2,6-dimethyl-2H-pyrazolo[3,4-b]pyridin-5-yl}-5-methyl-4-(propan-2-yl)-1H-pyrazol-3-yl)-2H-indazol-2-yl]-1-phenylethoxy]butan-1-ol], the IC50 turned out to be 320 nM. Regarding `Cc1c(C(C)C)c(-c2cccc3nn(C[C@H](O)c4ccccc4)cc23)nn1-c1cc2cn(C)nc2nc1C1(F)CC1` [Example 51, (1R)-2-(4-{1-[6-(1-fluorocyclopropyl)-2-methyl-2H-pyrazolo[3,4-b]pyridin-5-yl]-5-methyl-4-(propan-2-yl)-1H-pyrazol-3-yl}-2H-indazol-2-yl)-1-phenylethan-1-ol], the IC50 is 170 nM. With `Cc1nc2nn(C)cc2cc1-n1nc(-c2cccc3nn(C[C@H](O)c4ccccc4)cc23)c(C(C)C)c1C` [Example 102, (1R)-2-[4-(1-{2,6-Dimethyl-2H-pyrazolo[3,4-b]pyridin-5-yl}-5-methyl-4-(propan-2-yl)-1H-pyrazol-3-yl)-2H-indazol-2-yl]-1-phenylethan-1-ol] the figure was 40 nM. Consider `Cc1ccc([C@@H](O)Cn2cc3c(-c4nc(-c5cc6cn(C)nc6nc5C(C)C)n(C)c4C4CC4)cccc3n2)cc1` [Example 25, (1R)-2-(4-{5-cyclopropyl-1-methyl-2-[2-methyl-6-(propan-2-yl)-2H-pyrazolo[3,4-b]pyridin-5-yl]-1H-imidazol-4-yl}-2H-indazol-2-yl)-1-(4-methylphenyl)ethan-1-ol], for which the IC50 turned out to be 97 nM. As for `Cn1cc2cc(-c3nc(-c4cccc5nn(C[C@H](O)c6ccccc6)cc45)c(C4CC4)n3C)c(OC(F)F)cc2n1` [Example 34, (1R)-2-(4-{5-cyclopropyl-2-[6-(difluoromethoxy)-2-methyl-2H-indazol-5-yl]-1-methyl-1H-imidazol-4-yl}-2H-indazol-2-yl)-1-phenylethan-1-ol], the figure is 120 nM; as for `Cc1nc2nn(CCCN3CCCC3=O)cc2cc1-n1nc(-c2cccc3nn(C[C@H](O)c4ccccc4)cc23)c(C(C)C)c1C` [Example 21, 1-{3-[5-(3-{2-[(2R)-2-hydroxy-2-phenylethyl]-2H-indazol-4-yl}-5-methyl-4-(propan-2-yl)-1H-pyrazol-1-yl)-6-methyl-2H-pyrazolo[3,4-b]pyridin-2-yl]propyl}pyrrolidin-2-one], 85 nM. With `Cc1nc2nn(CCCO)cc2cc1-n1nc(-c2cccc3nn(C[C@H](O)c4ccccc4)cc23)c(C(C)C)c1C` [Example 32, 3-[5-(3-{2-[(2R)-2-hydroxy-2-phenylethyl]-2H-indazol-4-yl}-5-methyl-4-(propan-2-yl)-1H-pyrazol-1-yl)-6-methyl-2H-pyrazolo[3,4-b]pyridin-2-yl]propan-1-ol] the figure was 110 nM; with `Cc1nc2cc(C)c(-n3nc(-c4cccc5nn(C[C@H](O)c6ccccc6)cc45)c(C(C)C)c3C)cc2[nH]1` [Example 105, (1R)-2-{4-[1-(2,5-dimethyl-1H-1,3-benzodiazol-6-yl)-5-methyl-4-(propan-2-yl)-1H-pyrazol-3-yl]-2H-indazol-2-yl}-1-phenylethan-1-ol], 1600 nM; with `Cn1cc2cc(-c3nc(-c4cccc5nn(C[C@H](O)c6ccccc6)cc45)c(C4CC4)n3C)c(C3CC3(F)F)nc2n1` (stereo partly drawn) [Example 110, (1R)-2-(4-{5-cyclopropyl-2-[6-(2,2-difluorocyclopropyl)-2-methyl-2H-pyrazolo[3,4-b]pyridin-5-yl]-1-methyl-1H-imidazol-4-yl}-2H-indazol-2-yl)-1-phenylethan-1-ol], 85 nM. Regarding `Cn1c(-c2cc3cn(CCN4CCOCC4)nc3nc2C2CC2)nc(-c2cccc3nn(C[C@H](O)c4ccccc4)cc23)c1C1CC1` [Example 10, (1R)-2-[4-(5-cyclopropyl-2-{6-cyclopropyl-2-[2-(morpholin-4-yl)ethyl]-2H-pyrazolo[3,4-b]pyridin-5-yl}-1-methyl-1H-imidazol-4-yl)-2H-indazol-2-yl]-1-phenylethan-1-ol], 69 nM corresponded to half-maximal inhibition (IC50). As for `Cc1c(C(C)C)c(-c2cccc3nn(C[C@H](O)c4ccccc4)cc23)nn1-c1cc2cn(C)nc2nc1C1CCCO1` (stereo partly drawn) [Example 13, (1R)-2-(4-{5-methyl-1-[2-methyl-6-(oxolan-2-yl)-2H-pyrazolo[3,4-b]pyridin-5-yl]-4-(propan-2-yl)-1H-pyrazol-3-yl}-2H-indazol-2-yl)-1-phenylethan-1-ol], the figure is 73 nM; as for `Cc1c(C(C)C)c(-c2cccc3nn(C[C@H](O)c4ccccc4)cc23)nn1-c1cc2cn(C)nc2nc1C1CCOC1` (stereo partly drawn) [Example 47, (1R)-2-(4-{5-methyl-1-[2-methyl-6-(oxolan-3-yl)-2H-pyrazolo[3,4-b]pyridin-5-yl]-4-(propan-2-yl)-1H-pyrazol-3-yl}-2H-indazol-2-yl)-1-phenylethan-1-ol], 150 nM; as for `Cc1nc2nn(C)cc2cc1-n1nc(-c2cccc3nn(C[C@H](O)c4ccc(F)c(F)c4)cc23)c(C(C)C)c1C` [Example 44, (1R)-1-(3,4-difluorophenyl)-2-[4-(1-{2,6-dimethyl-2H-pyrazolo[3,4-b]pyridin-5-yl}-5-methyl-4-(propan-2-yl)-1H-pyrazol-3-yl)-2H-indazol-2-yl]ethan-1-ol], 140 nM.
